For assay [1], the target named is T1, α-synuclein (αSyn) (Homo sapiens, UniProt P37840). The assay can be described thus: split Gaussia luciferase oligomerization assay; also FRET oligomerization, HT-CM-SPR hit (tethered). Further details: gene SNCA; αSyn-GLuc1 and αSyn-GLuc2 (split Gaussia luciferase fragment fused to the C-terminus of αSyn); monomeric αSyn in SPR. The assay is classed as biochemical.

Assay [2] deals with T1, α-synuclein (αSyn). The assay can be described thus: split Gaussia luciferase oligomerization assay; also FRET oligomerization, ThT fibrillization, HT-CM-SPR hit (tethered). The assay is classed as biochemical. Further details: gene SNCA; αSyn-GLuc1 and αSyn-GLuc2 (split Gaussia luciferase fragment fused to the C-terminus of αSyn); monomeric αSyn in SPR and fibrillization.

SMILES strings stand for the structures.

Usually IC50 stands for the concentration that inhibits the measured activity by half. Low readings indicate greater potency in that assay, high ones weaker potency in that assay. In turn, `Cc1c(-c2csc(NC(C(N)=O)C3CCNCC3)n2)sc2ccccc12` (stereo not drawn) [compound 573437, 573437] had an IC50 on α-synuclein (αSyn) [1] of 104 µM.

Regarding `CNC(=O)c1cc(O)ccc1N` [compound 576755, 576755], at α-synuclein (αSyn) [2], the IC50 was determined as 10.5 µM.

Take `CNC(=O)CN(C(=O)Cc1noc2ccccc12)C(C)c1ccc(Cl)cc1` (stereo not drawn) [compound 582032, 582032]: it took 290 µM to reach half-maximal inhibition against α-synuclein (αSyn) [2] (IC50).

(Values after paper PMC6861283, “Novel Small Molecules Targeting the Intrinsically Disordered Structural Ensemble of α-Synuclein Protect Against Diverse α-Synuclein Mediated Dysfunctions” (Scientific Reports, 2019).)
